Tested on: HEK293 cells
Assay: Preliminary screening as mRNA vectors, EGFP mRNA transfection of HEK293 cells
Format: cell-based
Conditions: EGFP mRNA 50 ng per well, 96-well plates; percentage of GFP fluorescent cells relative to total number of cells (Hoechst)
Method in brief: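 HEK293 cells in DMEM plus 10% FBS transfected in 96-well format with 50 ng EGFP mRNA per well; Lipofectamine2000 served as positive control. Read-out is the percentage of GFP-fluorescent cells among total cells, counted by Hoechst nuclear stain.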

Compound	Absolute mRNA transfection efficiency in HEK293 cells [%]
CCCCCCCCCCCCCCSc1nc(NCCCCCC)nc(NCCN2CCCC2)n1 [Compound D3S14N6]	66.7
CCCCCCCCCCCCCCSc1nc(NCCCCCCC)nc(NCCN2CCCC2)n1 [Compound D3S14N7]	64.2
CCCCCCCCCCCCCCSc1nc(NCCCCCCCC)nc(NCCN2CCCC2)n1 [Compound D3S14N8]	55.2
CCCCCCCCCCCCCCSc1nc(NCCCCCCCCC)nc(NCCN2CCCC2)n1 [Compound D3S14N9]	51.6
CCCCCCCCCCCCCCSc1nc(NCCCCCCCCCCC)nc(NCCN2CCCC2)n1 [Compound D3S14N11]	30.9
CCCCCCCCCCCCCCSc1nc(NCCCCCCCCCCCC)nc(NCCN2CCCC2)n1 [Compound D3S14N12]	13.5
CCCCCCCCCCCCCCSc1nc(NCCCCCCCCCCCCC)nc(NCCN2CCCC2)n1 [Compound D3S14N13]	25.9
CCCCCCCCCCCCCCCNc1nc(NCCN2CCCC2)nc(SCCCCCCCCCCCCCC)n1 [Compound D3S14N15]	3.6
CCCCCCCCCCCCCCCCNc1nc(NCCN2CCCC2)nc(SCCCCCCCCCCCCCC)n1 [Compound D3S14N16]	1.2
CCCCCCCCCCCCCCCCCCNc1nc(NCCN2CCCC2)nc(SCCCCCCCCCCCCCC)n1 [Compound D3S14N18]	1.5
CCCCCCCCCCCCCCCSc1nc(NCCCCCC)nc(NCCN2CCCC2)n1 [Compound D3S15N6]	33.2
CCCCCCCCCCCCCCCSc1nc(NCCCCCCC)nc(NCCN2CCCC2)n1 [Compound D3S15N7]	80.8
CCCCCCCCCCCCCCCSc1nc(NCCCCCCCC)nc(NCCN2CCCC2)n1 [Compound D3S15N8]	17.0
CCCCCCCCCCCCCCCSc1nc(NCCCCCCCCC)nc(NCCN2CCCC2)n1 [Compound D3S15N9]	15.4
CCCCCCCCCCCCCCCSc1nc(NCCCCCCCCCCC)nc(NCCN2CCCC2)n1 [Compound D3S15N11]	23.2
CCCCCCCCCCCCCCCSc1nc(NCCCCCCCCCCCC)nc(NCCN2CCCC2)n1 [Compound D3S15N12]	7.5
CCCCCCCCCCCCCCCSc1nc(NCCCCCCCCCCCCC)nc(NCCN2CCCC2)n1 [Compound D3S15N13]	3.0
CCCCCCCCCCCCCCCNc1nc(NCCN2CCCC2)nc(SCCCCCCCCCCCCCCC)n1 [Compound D3S15N15]	2.6
CCCCCCCCCCCCCCCCNc1nc(NCCN2CCCC2)nc(SCCCCCCCCCCCCCCC)n1 [Compound D3S15N16]	7.6
CCCCCCCCCCCCCCCCCCNc1nc(NCCN2CCCC2)nc(SCCCCCCCCCCCCCCC)n1 [Compound D3S15N18]	8.5
CCCCCCCCCCCCCCCCSc1nc(NCCCCCC)nc(NCCN2CCCC2)n1 [Compound D3S16N6]	96.0

Compound	Absolute mRNA transfection efficiency in HEK293 cells [%]
CCCCCCCCCCCCCCCCSc1nc(NCCCCCCC)nc(NCCN2CCCC2)n1 [Compound D3S16N7]	85.0
CCCCCCCCCCCCCCCCSc1nc(NCCCCCCCC)nc(NCCN2CCCC2)n1 [Compound D3S16N8]	97.7
CCCCCCCCCCCCCCCCSc1nc(NCCCCCCCCC)nc(NCCN2CCCC2)n1 [Compound D3S16N9]	92.8
CCCCCCCCCCCCCCCCSc1nc(NCCCCCCCCCCC)nc(NCCN2CCCC2)n1 [Compound D3S16N11]	73.8
CCCCCCCCCCCCCCCCSc1nc(NCCCCCCCCCCCC)nc(NCCN2CCCC2)n1 [Compound D3S16N12]	1.7
CCCCCCCCCCCCCCCCSc1nc(NCCCCCCCCCCCCC)nc(NCCN2CCCC2)n1 [Compound D3S16N13]	0.4
CCCCCCCCCCCCCCCCSc1nc(NCCCCCCCCCCCCCCC)nc(NCCN2CCCC2)n1 [Compound D3S16N15]	0.0
CCCCCCCCCCCCCCCCNc1nc(NCCN2CCCC2)nc(SCCCCCCCCCCCCCCCC)n1 [Compound D3S16N16]	1.1
CCCCCCCCCCCCCCCCCCNc1nc(NCCN2CCCC2)nc(SCCCCCCCCCCCCCCCC)n1 [Compound D3S16N18]	14.1
CCCCCCCCCCCCCCCCCCSc1nc(NCCCCCC)nc(NCCN2CCCC2)n1 [Compound D3S18N6]	58.9
CCCCCCCCCCCCCCCCCCSc1nc(NCCCCCCC)nc(NCCN2CCCC2)n1 [Compound D3S18N7]	97.2
CCCCCCCCCCCCCCCCCCSc1nc(NCCCCCCCC)nc(NCCN2CCCC2)n1 [Compound D3S18N8]	93.3
CCCCCCCCCCCCCCCCCCSc1nc(NCCCCCCCCC)nc(NCCN2CCCC2)n1 [Compound D3S18N9]	72.3
CCCCCCCCCCCCCCCCCCSc1nc(NCCCCCCCCCCC)nc(NCCN2CCCC2)n1 [Compound D3S18N11]	30.9
CCCCCCCCCCCCCCCCCCSc1nc(NCCCCCCCCCCCC)nc(NCCN2CCCC2)n1 [Compound D3S18N12]	5.2
CCCCCCCCCCCCCCCCCCSc1nc(NCCCCCCCCCCCCC)nc(NCCN2CCCC2)n1 [Compound D3S18N13]	1.0
CCCCCCCCCCCCCCCCCCSc1nc(NCCCCCCCCCCCCCCC)nc(NCCN2CCCC2)n1 [Compound D3S18N15]	0.1
CCCCCCCCCCCCCCCCCCSc1nc(NCCCCCCCCCCCCCCCC)nc(NCCN2CCCC2)n1 [Compound D3S18N16]	0.5
CCCCCCCCCCCCCCCCCCNc1nc(NCCN2CCCC2)nc(SCCCCCCCCCCCCCCCCCC)n1 [Compound D3S18N18]	0.1
CCCCCCNc1nc(NCCN2CCCCC2)nc(SCCCCCC)n1 [Compound D4S6N6]	0.3
CCCCCCCNc1nc(NCCN2CCCCC2)nc(SCCCCCC)n1 [Compound D4S6N7]	0.0

Compound	Absolute mRNA transfection efficiency in HEK293 cells [%]
CCCCCCCCNc1nc(NCCN2CCCCC2)nc(SCCCCCC)n1 [Compound D4S6N8]	0.3
CCCCCCCCCNc1nc(NCCN2CCCCC2)nc(SCCCCCC)n1 [Compound D4S6N9]	1.1
CCCCCCCCCCCNc1nc(NCCN2CCCCC2)nc(SCCCCCC)n1 [Compound D4S6N11]	0.9
CCCCCCCCCCCCNc1nc(NCCN2CCCCC2)nc(SCCCCCC)n1 [Compound D4S6N12]	0.7
CCCCCCCCCCCCCNc1nc(NCCN2CCCCC2)nc(SCCCCCC)n1 [Compound D4S6N13]	2.1
CCCCCCCCCCCCCCCNc1nc(NCCN2CCCCC2)nc(SCCCCCC)n1 [Compound D4S6N15]	0.4
CCCCCCCCCCCCCCCCNc1nc(NCCN2CCCCC2)nc(SCCCCCC)n1 [Compound D4S6N16]	0.5
CCCCCCCCCCCCCCCCCCNc1nc(NCCN2CCCCC2)nc(SCCCCCC)n1 [Compound D4S6N18]	1.8
CCCCCCSc1nc(NCCN2CCCCC2)nc(SCCCCCC)n1 [Compound D4S6S6]	0.9
CCCCCCCSc1nc(NCCN2CCCCC2)nc(SCCCCCC)n1 [Compound D4S6S7]	1.2
CCCCCCCCSc1nc(NCCN2CCCCC2)nc(SCCCCCC)n1 [Compound D4S6S8]	0.5
CCCCCCCCCSc1nc(NCCN2CCCCC2)nc(SCCCCCC)n1 [Compound D4S6S9]	0.7
CCCCCCCCCCSc1nc(NCCN2CCCCC2)nc(SCCCCCC)n1 [Compound D4S6S10]	0.3
CCCCCCCCCCCCSc1nc(NCCN2CCCCC2)nc(SCCCCCC)n1 [Compound D4S6S12]	0.2
CCCCCCCCCCCCCCSc1nc(NCCN2CCCCC2)nc(SCCCCCC)n1 [Compound D4S6S14]	5.3
CCCCCCCCCCCCCCCSc1nc(NCCN2CCCCC2)nc(SCCCCCC)n1 [Compound D4S6S15]	2.0
CCCCCCCCCCCCCCCCSc1nc(NCCN2CCCCC2)nc(SCCCCCC)n1 [Compound D4S6S16]	5.1
CCCCCCCCCCCCCCCCCCSc1nc(NCCN2CCCCC2)nc(SCCCCCC)n1 [Compound D4S6S18]	8.8
CCCCCCCSc1nc(NCCCCCC)nc(NCCN2CCCCC2)n1 [Compound D4S7N6]	4.5
